Experimental data from US4820694A, “Modifications of 3-O-demethylmycinose in macrocin and lactenocin” (priority 1986, dated 1989).
In brackets after ≈: the same amount, converted by molar mass. Like-named read-outs stand apart in the source and are kept apart here.

Columns and labels:
[1] = system: Streptococcus pneumoniae Park I; assay: microbe, parasite or virus in culture; type: cell-based; conditions: Streptococcus pneumoniae
Protocol: (§1) The MIC's in Table III were determined by standard agar-dilution assays. The MIC's in Table IV were obtained using conventional brothdilution microtiter tests.

[2] = system: Staphylococcus aureus S13E; assay: microbe, parasite or virus in culture; type: cell-based; conditions: Staphylococcus aureus, S13E
Protocol: as §1

[3] = system: Pasteurella multocida 68C; assay: broth-dilution microtiter MIC test; type: cell-based; conditions: Pasteurella multocida, 68C
Protocol: as §1

[4] = system: Streptococcus sp. 19F; assay: broth-dilution microtiter MIC test; type: cell-based; conditions: Streptococcus, SP.19F
Protocol: as §1

[5] = system: Pasteurella multocida 60A; assay: broth-dilution microtiter MIC test; type: cell-based; conditions: Pasteurella multocida, 60A
Protocol: as §1

[6] = system: Pasteurella hemolytica 23C; assay: broth-dilution microtiter MIC test; type: cell-based; conditions: Pasteurella, 23C
Protocol: as §1

[7] = system: Pasteurella multocida 40G; assay: broth-dilution microtiter MIC test; type: cell-based; conditions: Pasteurella multocida, 40G
Protocol: as §1

[8] = system: Pasteurella multocida 17E; assay: broth-dilution microtiter MIC test; type: cell-based; conditions: Pasteurella multocida, 17E
Protocol: as §1

[9] = system: Staphylococcus aureus 19C; assay: broth-dilution microtiter MIC test; type: cell-based; conditions: Staphylococcus aureus, 19C
Protocol: as §1

[10] = system: Pasteurella hemolytica 22C; assay: broth-dilution microtiter MIC test; type: cell-based; conditions: Pasteurella, 22C
Protocol: as §1

[11] = system: Mycoplasma gallisepticum 29C; assay: broth-dilution microtiter MIC test; type: cell-based; conditions: Mycoplasmoides gallisepticum, 29C
Protocol: as §1

[12] = system: Bordetella bronchiseptica; assay: broth-dilution microtiter MIC test; type: cell-based; conditions: Bordetella bronchiseptica
Protocol: as §1

[13] = system: Pasteurella hemolytica 41D; assay: broth-dilution microtiter MIC test; type: cell-based; conditions: Pasteurella, 41D
Protocol: as §1

[14] = system: Pasteurella multocida 22A; assay: broth-dilution microtiter MIC test; type: cell-based; conditions: Pasteurella multocida, 22A
Protocol: as §1

[15] = system: Mycoplasma hyorhinis 29E; assay: broth-dilution microtiter MIC test; type: cell-based; conditions: Mycoplasma, 29E
Protocol: as §1

[16] = system: Mycoplasma gallisepticum 15E; assay: broth-dilution microtiter MIC test; type: cell-based; conditions: Mycoplasmoides gallisepticum, 15E
Protocol: as §1

[17] = system: Mycoplasma gallisepticum 36H; assay: broth-dilution microtiter MIC test; type: cell-based; conditions: Mycoplasmoides gallisepticum, 36H
Protocol: as §1

[18] = system: Mycoplasma synoviae 40A; assay: broth-dilution microtiter MIC test; type: cell-based; conditions: Mycoplasmopsis synoviae, 40A
Protocol: as §1

[19] = system: Klebsiella pneumoniae X68; assay: standard agar-dilution MIC assay; type: cell-based; conditions: Klebsiella pneumoniae, X68
Protocol: as §1

[20] = system: Streptococcus Group D X66; assay: standard agar-dilution MIC assay; type: cell-based; conditions: read-out: MIC
Protocol: as §1

[21] = system: Staphylococcus aureus X400; assay: standard agar-dilution MIC assay; type: cell-based; conditions: Staphylococcus aureus, X400
Protocol: as §1

[22] = system: Haemophilus influenzae 76; assay: standard agar-dilution MIC assay; type: cell-based; conditions: Haemophilus influenzae, 76
Protocol: as §1

[23] = system: Haemophilus influenzae C.L.; assay: standard agar-dilution MIC assay; type: cell-based; conditions: Haemophilus influenzae
Protocol: as §1

[24] = system: Escherichia coli EC14; assay: standard agar-dilution MIC assay; type: cell-based
Protocol: as §1

[25] = system: Staphylococcus epidermidis EPI1; assay: standard agar-dilution MIC assay; type: cell-based; conditions: Staphylococcus epidermidis, EPI1
Protocol: as §1

[26] = system: Staphylococcus aureus X1.1; assay: standard agar-dilution MIC assay; type: cell-based; conditions: Staphylococcus aureus, X1.1
Protocol: as §1

[27] = system: Streptococcus Group D 9960; assay: standard agar-dilution MIC assay; type: cell-based; conditions: GROUPD9960, read-out: MIC
Protocol: as §1

[28] = system: Staphylococcus aureus V41; assay: standard agar-dilution MIC assay; type: cell-based; conditions: Staphylococcus aureus, V41
Protocol: as §1

[29] = system: Streptococcus pyogenes C203; assay: standard agar-dilution MIC assay; type: cell-based; conditions: Streptococcus pyogenes, C203
Protocol: as §1

[30] = system: Pseudomonas aeruginosa X239; assay: standard agar-dilution MIC assay; type: cell-based; conditions: Pseudomonas aeruginosa, X239
Protocol: as §1

[31] = system: Streptococcus pyogenes C203; assay: protection of mice experimentally infected with S. pyogenes C203; type: in vivo
Protocol: The formula 1 compounds have shown in vivo antimicrobial activity against experimentally-induced infections in laboratory animals. When two doses of test compound were administered to mice experimentally infected with S. pyrogenes C203, the activity observed was measured as an ED50 value [effective dose in mg/kg to protect 50% of the test animals: see Warren Wick, et al., J. Bacteriol. 81, 233-235 (1961)].
^a mg/kg × 2; doses given 1 and 4 hours postinfection

[32] = broth-dilution microtiter, read-out: MIC

| SMILES | MIC [1] [µg/mL] | MIC [2] [µg/mL] | MIC [3] [µg/mL] | MIC [4] [µg/mL] | MIC [5] [µg/mL] | MIC [6] [µg/mL] | MIC [7] [µg/mL] | MIC [8] [µg/mL] | MIC [9] [µg/mL] | MIC [10] [µg/mL] | MIC [11] [µg/mL] | MIC [13] [µg/mL] | MIC [14] [µg/mL] | MIC [15] [µg/mL] | MIC [16] [µg/mL] | MIC [17] [µg/mL] | MIC [18] [µg/mL] | MIC [20] [µg/mL] | MIC [21] [µg/mL] | MIC [22] [µg/mL] | also measured |
| --- | --- | --- | --- | --- | --- | --- | --- | --- | --- | --- | --- | --- | --- | --- | --- | --- | --- | --- | --- | --- | --- |
| CCC1OC(=O)CC(O)C(C)C(OC2OC(C)C(OC3CC(C)(O)C(O)C(C)O3)C(N(C)C)C2O)C(CC=O)CC(C)C(=O)C=CC(C)=CC1COC1OC(C)C(OC(=O)Cc2ccccc2)C(O)C1OC (stereo not shown) [Compound 10, 4'"-O-Phenylacetyl-macrocin] | 0.25 (≈ 0.245 µM) | 1 (≈ 0.98 µM) | 50 (≈ 49 µM) | 0.78 (≈ 0.765 µM) | > 50 | > 50 | > 50 | 50 (≈ 49 µM) | 1.56 (≈ 1.53 µM) | > 50 | 0.39 (≈ 0.382 µM) | > 50 | > 50 | 3.12 (≈ 3.06 µM) | 12.5 (≈ 12.3 µM) | 12.5 (≈ 12.3 µM) | 1.56 (≈ 1.53 µM) | 1 (≈ 0.98 µM) | 2 (≈ 1.96 µM) | 16 (≈ 15.7 µM) | MIC [12]: > 50 µg/mL; MIC [19]: > 128 µg/mL; MIC [23]: 32 µg/mL (≈ 31.4 µM); MIC [24]: > 128 µg/mL; MIC [25]: 1 µg/mL (≈ 0.98 µM); MIC [26]: 1 µg/mL (≈ 0.98 µM); MIC [27]: 1 µg/mL (≈ 0.98 µM); MIC [28]: 1 µg/mL (≈ 0.98 µM); MIC [29]: 0.5 µg/mL (≈ 0.49 µM); MIC [30]: > 128 µg/mL; ED50 ([31]; C203, po): 38.8 mg/kg; ED50 ([31]; C203, sc): 1.9 mg/kg |
| CCC1OC(=O)CC(O)C(C)C(OC2OC(C)C(O)C(N(C)C)C2OC(C)=O)C(CC=O)CC(C)C(=O)C=CC(C)=CC1COC1OC(C)C(OC(=O)CC(C)C)C(O)C1OC (stereo not shown) [Compound 25, 2'-O-Acetyl-4"-O-isovaleryl-lactenocin] | 0.5 (≈ 0.566 µM) | 2 (≈ 2.26 µM) | 25 (≈ 28.3 µM) | 1.56 (≈ 1.76 µM) | 25 (≈ 28.3 µM) | 25 (≈ 28.3 µM) | 25 (≈ 28.3 µM) | 25 (≈ 28.3 µM) | 6.25 (≈ 7.07 µM) | 50 (≈ 56.6 µM) | 0.39 (≈ 0.441 µM) | 25 (≈ 28.3 µM) | 25 (≈ 28.3 µM) | 1.56 (≈ 1.76 µM) | 50 (≈ 56.6 µM) | 25 (≈ 28.3 µM) | 3.12 (≈ 3.53 µM) | 2 (≈ 2.26 µM) | 2 (≈ 2.26 µM) | 16 (≈ 18.1 µM) | MIC [12, 32]: > 50 µg/mL; MIC ([19]; agar-dilution, read-out: MIC): > 128 µg/mL; MIC [23]: 32 µg/mL (≈ 36.2 µM); MIC ([24]; agar-dilution, read-out: MIC): > 128 µg/mL; MIC [25]: 2 µg/mL (≈ 2.26 µM); MIC [26]: 2 µg/mL (≈ 2.26 µM); MIC [27]: 2 µg/mL (≈ 2.26 µM); MIC [28]: 2 µg/mL (≈ 2.26 µM); MIC [29]: 2 µg/mL (≈ 2.26 µM); MIC ([30]; agar-dilution, read-out: MIC): > 128 µg/mL |
| CCC1OC(=O)CC(O)C(C)C(OC2OC(C)C(O)C(N(C)C)C2O)C(CC=O)CC(C)C(=O)C=CC(C)=CC1COC1OC(C)C(OC(=O)CC(C)C)C(O)C1OC (stereo not shown) [Compound 26, 4"-O-Isovaleryl-lactenocin] | 0.25 (≈ 0.297 µM) | 1 (≈ 1.19 µM) | 12.5 (≈ 14.8 µM) | 1.56 (≈ 1.85 µM) | 25 (≈ 29.7 µM) | 25 (≈ 29.7 µM) | 25 (≈ 29.7 µM) | 25 (≈ 29.7 µM) | 3.12 (≈ 3.71 µM) | 50 (≈ 59.4 µM) | 1.56 (≈ 1.85 µM) | 50 (≈ 59.4 µM) | 25 (≈ 29.7 µM) | 1.56 (≈ 1.85 µM) | 50 (≈ 59.4 µM) | 50 (≈ 59.4 µM) | 3.12 (≈ 3.71 µM) | 1 (≈ 1.19 µM) | 2 (≈ 2.38 µM) | 8 (≈ 9.5 µM) | MIC [12, 32]: > 50 µg/mL; MIC ([19]; agar-dilution, read-out: MIC): > 128 µg/mL; MIC [23]: 8 µg/mL (≈ 9.5 µM); MIC ([24]; agar-dilution, read-out: MIC): > 128 µg/mL; MIC [25]: 1 µg/mL (≈ 1.19 µM); MIC [26]: 1 µg/mL (≈ 1.19 µM); MIC [27]: 1 µg/mL (≈ 1.19 µM); MIC [28]: 1 µg/mL (≈ 1.19 µM); MIC [29]: 0.5 µg/mL (≈ 0.594 µM); MIC ([30]; agar-dilution, read-out: MIC): > 128 µg/mL; ED50 ([31]; C203, Oral, mice, mg/kg × 2, doses given 1 and 4 hours postinfection, read-out: ED50): > 25 mg/kg; ED50 ([31]; C203, sc, Subcutaneous, mice, mg/kg × 2, doses given 1 and 4 hours postinfection, read-out: ED50): 5.37 mg/kg |
